Patent publication US5567716A, “Trans and cis traumatic acid salts having cicatrizant activity associated to bacteriostatic, antiviral, antibiotic or antifungal activity” (priority 1992, dated 1996)

What was measured:
[1] = tested on: E.coli ATCC 35218; assay: microbe, parasite or virus in culture; type: cell-based; conditions: for MINIMAL BACTERIAL CONCENTRATION: Table 2.b)3, test concentrations given in μg/ml
Procedure: (§1) 1. Culture Medium: Tryprone Soy Broth (TBS) - Biogenetics
(§2) Microbic standard strains from American Type Culture Collection (ATCC) were used, chosen among aerobic Gram positive and negative as follows:
(§3) The broths culture of the different species are prepared growing the standard strain (kept in Tryptic Soy Agar (TSA) slent at 5° C.) in Tryptone Soy Broth (TSB) for 12 hours at 37° C. 10 ml are then taken up from each culture, centrifugated for 3 times at 3500 PM washing each time the sediment using 10 ml of sterile saline solution. The sediment is resuspended in the saline solution until obtainment of a turbidity corresponding to the Mc Farland standard solution (the suspension title must be […] UFC/ml).
(§4) The compounds, dissolved as stock solution, were added to test tubes containing 5 ml TBS in order to obtain the desired Final concentration 10000; 5000; 1000; 200; 40; 2; 0.4; 0.05 μg/ml (culture medium maximal dilution=1/10).
(§5) 50 μl of bacterial suspension are added to the tube containing the compounds to be tested and incubated at 37° C.: the densitometric determination is made in comparison with Mc Farland standard solution 24 and 48 hours later.
(§6) After the incubation time the suspensions ape gently agitated; 50 μl of each suspension are inoculated in tubes containing […] of TSB and incubated at 37° C.; the densitometric determination is made 48 hours later.
(§7) BMC is defined by comparison between the two densitometric evaluation.

[2] = tested on: Ps.aeruginosa ATCC 35422; assay: Evaluation of bacteriostatic minimal concentration (BMC); type: cell-based; conditions: for MINIMAL BACTERIAL CONCENTRATION: Table 2.b)1, test concentrations given in μg/ml
Procedure: as §1, §2, §3, §4, §5, §6, §7

[3] = tested on: St.epidermidis ATCC 14990; assay: as above; type: cell-based; conditions: test concentrations given in μg/ml; for MINIMAL BACTERIAL CONCENTRATION: Table 2.b)4
Procedure: as §1, §2, §3, §4, §5, §6, §7

[4] = tested on: St.aureus ATCC 65380; assay: as above; type: cell-based; conditions: for MINIMAL BACTERIAL CONCENTRATION: Table 2.b)2, test concentrations given in μg/ml
Procedure: as §1, §2, §3, §4, §5, §6, §7

[5] = tested on: C.albicans ATCC 10231; assay: as above; type: cell-based; conditions: test concentrations given in μg/ml; for MINIMAL BACTERIAL CONCENTRATION: Table 2.b)6
Procedure: as §1, §2, §3, §4, §5, §6, §7

[6] = tested on: B.subtilis ATCC 6633; assay: as above; type: cell-based; conditions: test concentrations given in μg/ml; for MINIMAL BACTERIAL CONCENTRATION: Table 2.b)5
Procedure: as §1, §2, §3, §4, §5, §6, §7

[7] = Physical chemical characteristics: solubility in water and organic solvents
[8] = tested on: Balb/C 3T3 fibroblasts; assay: Cell growth of Balb/C 3T3 fibroblasts, crystal violet colorimetry (1.1b); type: cell-based, Mouse; conditions: for promotion of cell growth: 10^-5 to 10^-7 M, lincomycin > rolitetracycline > erythromycin salt; for promotion of cell growth / cell growth effect compared to traumatic acid: in words; for cell growth t2/t1: 48 h/24 h, control 76.776
Procedure: Mouse Balb/C 3T3 fibroblasts were grown in DMEM medium supplemented with penicillin (100 units/ml) and streptomycin (0.1 mg/ml). For experimental purposes, cells are routinely inoculated in […] diameter culture dishes (5000cells/dish) and cultured overnight.
The compounds to be tested are solubilized in DMEM+10%FCS and DMSO to obtain the final concentration of 10^-5 M, 10^-6 M e 10^-7 M in 0.05% DMSO.
The cells number is measured 4, 24 and 48 hours after seeding. The cell growth is evaluated as t2/t1 ratio (%).

[9] = tested on: fibroblast cells L929; assay: Cell growth of fibroblast L929 culture, crystal violet colorimetry (1.2); conditions: in words
Procedure: Mice fibroblast cells L929, clone derived from connective tissue, are suspended in Eagle's MEM with penicillin (100U/ml)--streptomycin (0.1 mg/ml), seeded in culture dishes (10000cells/dish) and cultured overnight. After 24 hours the culture medium was decantated and the tested compounds are added. The cellular density is measured after 4 (t0) and 24 (t1) hours of incubation at 37° C. in 5% CO2 air by colorimetry using crystal violet (exposure for 15 minutes, room temperature; absorbance 570 nm).
The cells number is measured at 4 (t0) and 24 (t1) hours from the seeding. The cell growth is evaluated at t1/t0 rate (%).

[10] = 4 h (t0), 10^-5M, control 0.300
[11] = 4 h (t0), 10^-6M, control 0.300
[12] = 4 h (t0), 10^-7M, control 0.300
[13] = 24 h (t1), 10^-5M, control 0.481
[14] = 24 h (t1), 10^-6M, control 0.481
[15] = 24 h (t1), 10^-7M, control 0.481
[16] = 48 h (t2), 10^-5M, control 0.849
[17] = 48 h (t2), 10^-6M, control 0.849
[18] = 48 h (t2), 10^-7M, control 0.849

Row | Molecule | water solubility ([7]; water, in words) | MINIMAL BACTERIAL CONCENTRATION [1] | MINIMAL BACTERIAL CONCENTRATION [2] | MINIMAL BACTERIAL CONCENTRATION [4] | MINIMAL BACTERIAL CONCENTRATION [5] | MINIMAL BACTERIAL CONCENTRATION [6] | organic solvent solubility ([7]; in DMSO) [mg/mL] | promotion of cell growth [8] | Cell density [8, 10] | Cell density [8, 11] | Cell density [8, 12] | Cell density [8, 13] | Cell density [8, 14] | Cell density [8, 15] | Cell density [8, 16] | Cell density [8, 17] | Cell density [8, 18] | cell growth t2/t1 ([8]; 10^-5M) [%] | cell growth t2/t1 ([8]; 10^-6M) [%] | cell growth t2/t1 ([8]; 10^-7M) [%] | further results
1 | O=C([O-])/C=C/CCCCCCCCC(=O)[O-].[Zn+2] [Zinc Traumatate, zinc trans-traumatate] | poorly soluble |  |  |  |  |  |  |  |  |  |  |  |  |  |  |  |  |  |  |  | MIC ([1]; Escherichia coli, ATCC35218, read-out: MINIMAL BACTERIAL CONCENTRATION): > 10000 µg/mL; MIC ([2]; Pseudomonas aeruginosa, ATCC35422, read-out: MINIMAL BACTERIAL CONCENTRATION): > 10000 µg/mL; MIC ([3]; Staphylococcus epidermidis, ATCC14990; Table 2.b)4, read-out: MINIMAL BACTERIAL CONCENTRATION): > 10000 µg/mL; MIC ([4]; Staphylococcus aureus, ATCC65380, read-out: MINIMAL BACTERIAL CONCENTRATION): > 10000 µg/mL; MIC ([5]; Candida albicans, ATCC10231; Table 2.b)6, read-out: MINIMAL BACTERIAL CONCENTRATION): > 10000 µg/mL; MIC ([6]; Bacillus subtilis, ATCC6633; Table 2.b)5, read-out: MINIMAL BACTERIAL CONCENTRATION): > 10000 µg/mL; solubility ([7]; 5% nh3): > 10 mg/mL; organic solvent solubility ([7]; in DMSO, in words): poorly soluble; organic solvent solubility ([7]; in ethanol, in words): poorly soluble
2 | CC[C@H]1OC(=O)[C@H](C)[C@@H](O[C@H]2C[C@@](C)(OC)[C@@H](O)[C@H](C)O2)[C@H](C)[C@@H](O[C@@H]2O[C@H](C)C[C@H](N(C)C)[C@H]2O)[C@](C)(O)C[C@@H](C)C(=O)[C@H](C)[C@@H](O)[C@]1(C)O.CC[C@H]1OC(=O)[C@H](C)[C@@H](O[C@H]2C[C@@](C)(OC)[C@@H](O)[C@H](C)O2)[C@H](C)[C@@H](O[C@@H]2O[C@H](C)C[C@H](N(C)C)[C@H]2O)[C@](C)(O)C[C@@H](C)C(=O)[C@H](C)[C@@H](O)[C@]1(C)O.O=C(O)/C=C/CCCCCCCCC(=O)O [Erythromycin Traumatate, Erythromycin trans-traumatate] | poorly soluble | 10,000.00 | 10,000.00 | 10,000.00 | > 10,000 | 1,000.00 | > 10 | capable to promote cell growth at all the tested doses | 0.370 | 0.352 | 0.344 | 0.365 | 0.369 | 0.368 | 0.919 | 0.921 | 1.074 | 159.16 | 148.64 | 196.81 | organic solvent solubility ([7]; in ethanol): > 10 mg/mL; cell growth effect compared to traumatic acid [8]: more consistent if compared to the corresponding one of the parent compound traumatic acid
3 | rolitetracycline trans-traumatate [Rolitetracycline Traumatate] |  | 1,000.00 | 10,000.00 | 5,000.00 | 1,000.00 | 40.00 | > 10 | capable to promote cell growth at all the tested doses | 0.46 | 0.475 | 0.482 | 0.255 | 0.356 | 0.287 | 0.678 | 0.660 | 0.828 | 166.39 | 186.69 | 185.44 | MINIMAL BACTERIAL CONCENTRATION [3]: 200.00; solubility in water ([7]; water): > 10 mg/mL; cell growth effect compared to traumatic acid [8]: more consistent if compared to the corresponding one of the parent compound traumatic acid
4 | CC(C)(C)CC(C)(C)c1ccc(OCCOCC[N+](C)(C)Cc2ccccc2)cc1.CC(C)(C)CC(C)(C)c1ccc(OCCOCC[N+](C)(C)Cc2ccccc2)cc1.O=C([O-])/C=C/CCCCCCCCC(=O)[O-] [Benzethonium Traumatate, benzethonium trans-traumatate] |  | 40.00 | 200.00 | 2.00 | 2.00 | 8.00 |  |  |  |  |  |  |  |  |  |  |  |  |  |  | MINIMAL BACTERIAL CONCENTRATION [3]: 2.00; cell growth effect compared to traumatic acid [9]: higher than traumatic acid effect; promotion of cell growth (proliferation) ([9]; benzethonium > gentamycin salt): capable to promote cell growth (proliferation) according to dose-effect relationship
